From patent US6376480B1, “Vitamin D derivatives with substituents at C-25, process for their production, intermediate products and use for the production of pharmaceutical agents” (Schering Aktiengesellschaft, priority 1995, dated 2002)

How the values were obtained:
[1] = tested on: HL 60 cells; assay: differentiation induction of HL 60 cells to macrophages (NBT reduction); type: cell-based, human; conditions: DR = test substance dose/calcitriol dose for comparable semi-maximum effects; 96 hours incubation
Experimental: It is known in the literature (Mangelsdorf, D. J. et al., J. Cell. Biol. 98: 391-398 (1984)), that the treatment of human leukemia cells (promyelocyte cell line HL 60) in vitro with calcitriol induces the differentiation of cells to macrophages.
HL 60 cells are cultivated in tissue culture medium (RPMI 10% fetal calf serum) at 37° C. in an atmosphere of 5% CO2 in air.
For substance testing, the cells are centrifuged off, and 2.0×10^5 cells/ml in phenol red-free tissue culture medium is taken up. The test substances are dissolved in ethanol and diluted with tissue culture medium without phenol red to the desired concentration. The dilution stages are mixed with the cell suspension at a ratio of 1:10, and 100 μl each of this cell suspension that is mixed with substance is pipetted into an indentation of a 96-hole plate. For control, a cell suspension is mixed analogously with the solvent.
After incubation for 96 hours at 37° C. in 5% CO2 in air, 100 μl of an NBT-TPA solution (nitro blue tetrazolium (NBT), final concentration in the batch of 1 mg/ml, tetradecanoyl phorbolmyristate-13-acetate (TPA), final concentration in the batch of 2×10^−7 mol/l) is pipetted into each indentation of the 96-hole plate in the cell suspension.
By incubation for 2 hours at 37° C. and 5% CO2 in air, NBT is reduced to insoluble formazan because of the intracellular oxygen radical release, stimulated by TPA, in the cells that are differentiated to macrophages.
To complete the reaction, the indentations of the 96-hole plate are suctioned off, and the cells are affixed to the bottom of the plate by adding methanol and dried after affixing. To dissolve the intracellular formazan crystals that are formed, 100 μl of potassium hydroxide (2 mol/l) and 100 μl of dimethyl sulfoxide are pipetted into-each indentation and ultrasonically treated for 1 minute. The concentration of formazan is measured by spectrophotometry at 650 nm.
As a yardstick for the differentiation induction of HL 60 cells to macrophages, the concentration of formed formazan applies.

[2] = molecular target: T1, calcitriol receptor (Sus scrofa, UniProt A3RGC1); assay: calcitriol-receptor test (competition with 3H-calcitriol); conditions: quotient of concentrations of test substance and calcitriol for 50% competition, receptor protein from intestines of juvenile pigs
T1 sequence (A3RGC1 1-427): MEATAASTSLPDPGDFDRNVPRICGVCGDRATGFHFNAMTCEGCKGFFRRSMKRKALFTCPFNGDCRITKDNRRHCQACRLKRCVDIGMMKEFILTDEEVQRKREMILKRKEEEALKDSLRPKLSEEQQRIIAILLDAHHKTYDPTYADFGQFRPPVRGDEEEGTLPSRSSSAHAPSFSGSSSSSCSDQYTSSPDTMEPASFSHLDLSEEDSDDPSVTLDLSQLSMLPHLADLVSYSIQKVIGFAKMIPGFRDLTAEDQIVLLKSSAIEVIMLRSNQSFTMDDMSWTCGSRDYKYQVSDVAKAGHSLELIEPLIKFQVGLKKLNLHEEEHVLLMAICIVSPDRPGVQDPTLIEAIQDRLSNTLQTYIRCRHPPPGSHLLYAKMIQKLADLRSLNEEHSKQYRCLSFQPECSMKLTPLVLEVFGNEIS
Experimental: The vitamin D activity of the substances according to the invention is determined with the aid of the calcitriol-receptor test. It is carried out with use of a specific receptor protein from the intestines of juvenile pigs.
Then, the samples are centrifuged at 10,000×g for 5 minutes at 4° C. The supernatant is decanted and measured in a β-counter after 1 hour of equilibration in Picofluor 15™.
The competition curves that are obtained with various concentrations of test substance as well as of reference substance (unlabeled calcitriol) at constant concentration of the reference substance (^3H-calcitriol) are placed in relation to one another and a competition factor (KF) is determined.
It is defined as a quotient of the concentrations of the respective test substance and the reference substance, which are necessary for 50% competition: [formula]

[3] = tested on: HL 60 cells; assay: antagonism of the action of calcitriol in HL 60 cells; type: cell-based, human

Structure (SMILES) | Dose Ratio for Differentiation Induction in HL 60 Cells [1] | Competition Factor KF for Receptor Bonding [2] | antagonism of the action of calcitriol in HL 60 cells [3]
CC(=O)C1(C(O)C=CC(C)C2CCC3C(=CC=C4CC(O)CC(O)C4)CCCC32C)CC1 [Compound 55b, (7E,22E)-(1R,3R,24R)-25-Acetyl-26,27-cyclo-19-nor-9,10-secocholesta-5,7,22-triene-1,3,24-triol] | 0.2 | 4.5 | 
C=C1/C(=C\C=C2/CCC[C@]3(C)[C@@H]([C@H](C)/C=C/[C@@H](O)C4(C(=O)/C=C/CCC)CC4)CC[C@@H]23)C[C@@H](O)C[C@@H]1O [Compound 18b, [5Z,7E,22E,25(E)]-(1S,3R,24R)-25-(1-Oxo-2-hexenyl)-26,27-cyclo-9,10-secocholesta-5,7,10(19),22-tetraene-1,3,24-triol] | 330 | 2 | antagonize the action of calcitriol
CC(=O)C1(C(O)C=CC(C)(C)C2CCC3C(=CC=C4CC(O)CC(O)C4)CCCC32C)CC1 [Compound 81a, (7E,22E)-(1R,3R,24S)-25-Acetyl-20-methyl-26,27-cyclo-19-nor-9,10-secocholesta-5,7,22-triene-1,3,24-triol] | 0.2 | 10 | 
C=C1/C(=C\C=C2/CCC[C@]3(C)[C@@H]([C@H](C)/C=C/[C@@H](O)C4(/C=C/C(=O)OCC)CC4)CC[C@@H]23)C[C@@H](O)C[C@@H]1O [Compound 24b, [5Z,7E,22E,25(E)]-(1S,3R,24R)-25-(3-Ethoxy-3-oxo-1-propenyl)-26,27-cyclo-9,10-secocholesta-5,7,10(19),22-tetraene-1,3,24-triol] | >1000 | 4 | antagonize the action of calcitriol
CCCCCC(=O)C1([C@H](O)/C=C/C(C)(C)[C@H]2CC[C@H]3/C(=C/C=C4C[C@@H](O)C[C@H](O)C4)CCC[C@]23C)CC1 [Compound 87b, (7E,22E)-(1R,3R,24R)-20-methyl-25-(1-oxohexyl)-26,27-cyclo-19-nor-9,10-secocholesta-5,7,22-triene-1,3,24-triol] | 116 | 3 | antagonize the action of calcitriol
C=C1/C(=C\C=C2/CCC[C@]3(C)[C@@H]([C@H](C)/C=C/[C@@H](O)C4(C(=O)CCCC)CC4)CC[C@@H]23)C[C@@H](O)C[C@@H]1O [Compound 6b, (5Z,7E,22E)-(1S,3R,24R)-25-(1-Oxopentyl)-26,27-cyclo-9,10-secocholesta-5,7,10(19),22-tetraene-1,3,24-triol] | 58 | 2 | antagonize the action of calcitriol
CCCCCC(=O)C1([C@H](O)/C=C/[C@@H](C)[C@H]2CC[C@H]3/C(=C/C=C4C[C@@H](O)C[C@H](O)C4)CCC[C@]23C)CC1 [Compound 61b, (7E,22E)-(1R,3R,24R)-25-(1-Oxohexyl)-26,27-cyclo-19-nor-9,10-secocholesta-5,7,22-triene-1,3,24-triol] | >1000 | 3 | antagonize the action of calcitriol
C=C1/C(=C\C=C2/CCC[C@]3(C)[C@@H]([C@H](C)/C=C/[C@@H](O)C4(C(=O)CCCCC)CC4)CC[C@@H]23)C[C@@H](O)C[C@@H]1O [Compound 9b, (5Z,7E,22E)-(1S,3R,24R)-25-(1-Oxohexyl)-26,27-cyclo-9,10-secocholesta-5,7,10(19),22-tetraene-1,3,24-triol] | >180 | 3 | antagonize the action of calcitriol
C=C1/C(=C\C=C2/CCC[C@]3(C)[C@@H](C(C)(C)/C=C/[C@@H](O)C4(C(=O)CCCCCCC)CC4)CC[C@@H]23)C[C@@H](O)C[C@@H]1O [Compound 43b, (5Z,7E,22E)-(1S,3R,24R)-20-methyl-25-(1-oxooctyl)-26,27-cyclo-9,10-secocholesta-5,7,10(19),22-tetraene-1,3,24-triol] | >1000 | 33 | antagonize the action of calcitriol
CC(=O)C1(C(O)C=CC(C)(C)C2CCC3C(=CC=C4CC(O)CC(O)C4)CCCC32C)CC1 [Compound 81b, (7E,22E)-(1R,3R,24R)-25-acetyl-20-methyl-26,27-cyclo-19-nor-9,10-secocholesta-5,7,22-triene-1,3,24-triol] | 0.1 | 3 | 
CCCCC(=O)C1([C@H](O)/C=C/[C@@H](C)[C@H]2CC[C@H]3/C(=C/C=C4C[C@@H](O)C[C@H](O)C4)CCC[C@]23C)CC1 [Compound 58b, (7E,22E)-(1R,3R,24R)-25-(1-Oxopentyl)-26,27-cyclo-19-nor-9,10-secocholesta-5,7,22-triene-1,3,24-triol] | 160 | 3 | antagonize the action of calcitriol
C=C1C(=CC=C2CCCC3(C)C2CCC3C(C)(C)C=CC(O)C2(C(=O)CCC)CC2)CC(O)CC1O [Compound 35b, (5Z,7E,22E)-(1S,3R,24R)-20-methyl-25-(1-oxobutyl)-26,27-cyclo-9,10-secocholesta-5,7,10(19),22-tetraene-1,3,24-triol] | 0.2 | 2 | 
C=C1/C(=C\C=C2/CCC[C@]3(C)[C@@H]([C@H](C)/C=C/[C@@H](O)C4(/C=C/C(=O)OC(C)(C)C)CC4)CC[C@@H]23)C[C@@H](O)C[C@@H]1O [Compound 26b, [5Z,7E,22E,25(E)]-(1S,3R,24R)-25-[3-(1,1-Dimethylethoxy)-3-oxo-1-propenyl]-26,27-cyclo-9,10-secocholesta-5,7,10(19),22-tetraene-1,3,24-triol] | >1000 | 4 | antagonize the action of calcitriol
C=C1C(=CC=C2CCCC3(C)C2CCC3C(C)(C)C=CC(O)C2(C(C)=O)CC2)CC(O)CC1O [Compound 33a, (5Z,7E,22E)-(1S,3R,24S)-25-acetyl-20-methyl-26,27-cyclo-9,10-secocholesta-5,7,10(19),22-tetraene-1,3,24-triol] | 0.5 | 4 | 
C=C1C(=CC=C2CCCC3(C)C2CCC3C(C)(C)C=CC(O)C2(C(C)=O)CC2)CC(O)CC1O [Compound 33b, (5Z,7E,22E)-(1S,3R,24R)-25-acetyl-20-methyl-26,27-cyclo-9,10-secocholesta-5,7,10(19),22-tetraene-1,3,24-triol] | 0.4 | 4 | 
C=C1C(=CC=C2CCCC3(C)C2CCC3C(C)(C)C=CC(O)C2(C(=O)CCC)CC2)CC(O)CC1O [Compound 35a, (5Z,7E,22E)-(1S,3R,24S)-20-methyl-25-(1-oxobutyl)-26,27-cyclo-9,10-secocholesta-5,7,10(19),22-tetraene-1,3,24-triol] | 0.3 | 7 | 
C=C1/C(=C\C=C2/CCC[C@]3(C)[C@@H]([C@H](C)/C=C/[C@@H](O)C4(C(=O)c5ccccc5)CC4)CC[C@@H]23)C[C@@H](O)C[C@@H]1O [Compound 10b, (5Z,7E,22E)-(1S,3R,24R)-25-benzoyl-26,27-cyclo-9,10-secocholesta-5,7,10(19),22-tetraene-1,3,24-triol] | 6 | 2 | 
C=C1C(=CC=C2CCCC3(C)C2CCC3C(C)C=CC(O)C2(C(=O)C3CC3)CC2)CC(O)CC1O [Compound 12b, (5Z,7E,22E)-(1S,3R,24R)-25-(Cyclopropylcarbonyl)-26,27-cyclo-9,10-secocholesta-5,7,10(19),22-tetraene-1,3,24-triol] | 0.2 | 2 | 
